# Data published in the supplement of paper PMC10307832.
# Columns and labels:
# Assay in all cases: relative viability (nuclei count vs DMSO), 5 days (fraction); higher = more cells survive
# VE-821 + Palbociclib = compound: CS(=O)(=O)c1ccc(-c2cnc(N)c(C(=O)Nc3ccccc3)n2)cc1 [VE-821] + CC(=O)c1c(C)c2cnc(Nc3ccc(N4CCNCC4)cn3)nc2n(C2CCCC2)c1=O [Palbociclib] (partner 0.5 µM)
# Summary of the method: (§1)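 After 5 days of treatment, lung cancer cells in 1536-well plates were fixed and stained in a single step (final 0.05% Triton X-100, 1% formaldehyde, 1 ug/ml Hoechst) and their nuclei counted on 4× images. Treatment had been applied by pin tool the day after seeding as one drug alone or as a fixed anchor-drug dose with five library-drug doses (not always all listed) in √10 steps. Relative viability is the nuclei count of treated wells divided by that of vehicle wells, and values are medians of duplicate plates.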
# Vismodegib + Tozasertib = compound: CS(=O)(=O)c1ccc(C(=O)Nc2ccc(Cl)c(-c3ccccn3)c2)c(Cl)c1 [Vismodegib] + Cc1cc(Nc2cc(N3CCN(C)CC3)nc(Sc3ccc(NC(=O)C4CC4)cc3)n2)n[nH]1 [Tozasertib] (partner 0.1 µM)
# Summary of the method: as §1
# Ruxolitinib + Navitoclax = compound: N#CC[C@H](C1CCCC1)n1cc(-c2ncnc3[nH]ccc23)cn1 [Ruxolitinib] + CC1(C)CCC(c2ccc(Cl)cc2)=C(CN2CCN(c3ccc(C(=O)NS(=O)(=O)c4ccc(N[C@H](CCN5CCOCC5)CSc5ccccc5)c(S(=O)(=O)C(F)(F)F)c4)cc3)CC2)C1 [Navitoclax] (partner 0.5 µM)
# Summary of the method: as §1
# Ruxolitinib + AZD7762 = compound: N#CC[C@H](C1CCCC1)n1cc(-c2ncnc3[nH]ccc23)cn1 [Ruxolitinib] + NC(=O)Nc1cc(-c2cccc(F)c2)sc1C(=O)N[C@H]1CCCNC1 [AZD7762] (partner 0.2 µM)
# Summary of the method: as §1
Cell Line,relative viability (VE-821 + Palbociclib; first compound 0.08 µM),relative viability (VE-821 + Palbociclib; first compound 0.253 µM),relative viability (VE-821 + Palbociclib; first compound 0.8 µM),relative viability (VE-821 + Palbociclib; first compound 2.53 µM),relative viability (VE-821 + Palbociclib; first compound 8 µM),relative viability (Vismodegib + Tozasertib; first compound 0.08 µM),relative viability (Vismodegib + Tozasertib; first compound 0.253 µM),relative viability (Vismodegib + Tozasertib; first compound 0.8 µM),relative viability (Vismodegib + Tozasertib; first compound 2.53 µM),relative viability (Vismodegib + Tozasertib; first compound 8 µM),relative viability (Ruxolitinib + Navitoclax; first compound 0.08 µM),relative viability (Ruxolitinib + Navitoclax; first compound 0.253 µM),relative viability (Ruxolitinib + Navitoclax; first compound 0.8 µM),relative viability (Ruxolitinib + Navitoclax; first compound 2.53 µM),relative viability (Ruxolitinib + Navitoclax; first compound 8 µM),relative viability (Ruxolitinib + AZD7762; first compound 0.08 µM),relative viability (Ruxolitinib + AZD7762; first compound 0.253 µM),relative viability (Ruxolitinib + AZD7762; first compound 0.8 µM),relative viability (Ruxolitinib + AZD7762; first compound 2.53 µM),relative viability (Ruxolitinib + AZD7762; first compound 8 µM)
HCC-366,0.668,0.378,0.303,0.0939,0.0558,0.11,0.106,0.0997,0.0832,0.0622,1.14,1.05,1.05,0.965,0.993,0.286,0.253,0.262,0.166,0.246
HCC-827,0.515,0.516,0.405,0.531,0.522,0.42,0.419,0.432,0.392,0.423,,0.863,0.908,0.857,0.845,,0.178,0.238,0.236,0.308
IA-LM,,,,,,,,,,,0.821,0.85,0.913,0.743,0.395,,,,,
LCLC-103H,0.552,0.513,0.524,0.523,0.448,0.503,0.506,0.489,0.437,0.446,,,,,,0.829,0.783,0.798,0.836,0.614
NCI-H358,0.13,0.14,0.134,0.135,0.133,0.0964,0.104,0.104,0.103,0.0976,,,,,,0.5,0.653,0.504,0.404,0.445
NCI-H520,0.243,0.242,0.177,0.269,0.188,0.392,0.452,0.481,0.385,0.433,,1.01,1.38,1.22,0.782,,,,,
NCI-H522,1.06,1.15,0.754,0.932,0.999,0.534,0.508,0.529,0.548,0.577,,,,,,0.948,0.716,1.01,0.794,0.803
NCI-H596,,,,,,1,0.814,0.932,0.838,0.769,0.903,1.05,1,1.01,1.14,1.35,1.04,1.21,1.09,1.27
NCI-H650,0.365,0.341,0.331,0.438,0.352,0.725,0.778,0.705,0.743,0.718,,,,,,0.951,1.06,1.01,0.993,0.707
NCI-H661,0.409,0.453,0.415,0.4,0.413,0.352,0.339,0.353,0.359,0.365,,,,,,,,,,
NCI-H1299,,,,,,,,,,,1.03,1.05,1.02,1.02,0.85,,,,,
NCI-H1623,,,,,,0.403,0.42,0.422,0.418,0.411,,,,,,,,,,
NCI-H1648,0.269,,0.252,0.265,0.349,0.395,0.461,0.348,0.427,0.562,,,,,,0.739,0.817,0.658,0.914,1.15
NCI-H1650,0.342,0.324,0.329,0.4,0.336,0.413,0.365,0.315,0.286,0.34,,1.05,1.23,0.96,0.971,,,,,
NCI-H1703,,,,,,,,,,,1.18,1.23,1.23,0.562,0.611,0.127,0.126,0.143,,0.115
NCI-H1792,0.725,0.698,0.664,0.762,0.66,,,,,,0.658,0.644,0.595,0.473,0.519,0.557,0.636,0.63,0.475,0.391
NCI-H2009,0.204,0.215,0.234,0.18,0.188,0.727,0.674,0.834,0.817,0.733,1.2,1.2,1.16,0.961,0.897,,,,,
NCI-H2023,0.452,0.346,0.317,0.297,0.124,0.356,0.341,0.348,0.315,0.227,1,0.94,1.08,0.939,0.855,,,,,
NCI-H2228,0.885,0.762,0.981,1.03,0.547,0.218,0.277,0.23,0.217,0.265,0.925,0.987,1.02,0.921,0.712,,,,,
NCI-H2342,0.503,0.557,0.528,0.521,0.494,0.508,0.492,0.477,0.511,0.461,,,,,,0.429,0.447,0.488,0.422,0.649
SK-LU-1,0.408,0.424,0.323,0.376,0.261,0.269,0.348,0.295,0.347,0.361,0.79,0.634,0.0636,0.539,0.656,,,,,
SK-MES-1,0.339,0.345,0.323,0.296,0.287,0.881,0.871,0.974,0.841,0.827,1.3,1.12,1.26,1.18,0.9,,,,,
SW 900,0.549,0.52,0.46,0.542,0.36,0.52,0.574,0.56,0.426,0.435,,,,,,0.656,0.525,0.722,0.891,0.833
SW 1573,0.419,0.439,0.449,0.353,0.315,0.185,0.206,0.16,0.13,0.19,1.06,0.925,1.02,0.918,1.04,,,,,
